In one experiment the test system is KB. The experiment can be described thus: cells. The conditions noted are these: Homo sapiens.
In the next experiment the test system is Enterococcus faecium. The experiment can be described thus: Antibacterial activity against Enterococcus faecium ATCC 51559 by CLSI based microplate assay. The format is functional.
The subject of a further experiment is NCI-H187. Kind of experiment: cells. The note with it: Homo sapiens.
The test system of another experiment is Klebsiella pneumoniae. Kind of experiment: Antibacterial activity against Klebsiella pneumoniae ATCC 700603 by CLSI based microplate assay. In kind it is functional.
For experiment [1], the system named is Mycobacterium tuberculosis. Kind of experiment: Antitubercular activity against Mycobacterium tuberculosis H37Ra ATCC 25177 assessed as reduction in bacterial growth after 6 to 8 days by green fluorescent protein microplate assay. The format is functional. The note with it: time 6-8 day.
The subject of a further experiment is Vero. The experiment can be described thus: Cytotoxicity against African green monkey Vero cells by green fluorescent protein microplate assay. In kind it is cell-based. The conditions noted are these: Chlorocebus sabaeus.
A further experiment concerns Plasmodium falciparum. The experiment can be described thus: Antimalarial activity against multi drug-resistant Plasmodium falciparum K1 infected in human erythrocytes assessed as inhibition of [G-3H]hypoxanthine uptake preincubated for 24 hrs followed by [G-3H]hypoxanthine addition and measured after 18 hrs by scintillation counting method. In kind it is functional, organism-based.

For the next experiment, the system named is Escherichia coli. Kind of experiment: Antibacterial activity against Escherichia coli ATCC 25922 by CLSI based microplate assay. In kind it is functional.
The subject of the next experiment is MCF7. The experiment can be described thus: cells. The note with it: Homo sapiens.
In the next experiment the test system is Pseudomonas aeruginosa. The experiment can be described thus: Antibacterial activity against Pseudomonas aeruginosa ATCC 15692 by CLSI based microplate assay. In kind it is functional.
The next experiment has as its system Acinetobacter baumannii. Kind of experiment: Antibacterial activity against Acinetobacter baumannii ATCC 19606 by CLSI based microplate assay. The format is functional. The note with it: ATCC 19606 = CIP 70.34 = JCM 6841.
In a further experiment the test system is Candida albicans. The experiment can be described thus: Antifungal activity against Candida albicans ATCC 90028 by resazurin microplate assay. In kind it is functional.
The next experiment deals with Bacillus cereus. The experiment can be described thus: Antibacterial activity against Bacillus cereus ATCC 11778 by resazurin microplate assay. In kind it is functional.

The structures appear in SMILES notation. ≈ marks a conversion by molar mass, not a printed value. Calls of active or inactive are those of the source. Bounds are passed on as bounds.

Description for KB: Cytotoxicity against human KB cells assessed as reduction in cell viability by resazurin based fluorescence assay
Description for MCF7: Cytotoxicity against human MCF7 cells assessed as reduction in cell viability by resazurin based fluorescence assay
Description for NCI-H187: Cytotoxicity against human NCI-H187 cells assessed as reduction in cell viability by resazurin based fluorescence assay

In the case of `CO[C@H]1CC=C2C(=O)c3c(O)cc(C)c(-c4c(C)cc(O)c5c4O[C@]4(C)C(=CC[C@H](OC)[C@H]4O)C5=O)c3O[C@@]2(C)[C@@H]1O`, the IC50 in the experiment with KB stood at 1.5 µM; in the experiment on NCI-H187 it was 0.8 µM; in the experiment with Vero, 1.1 µM; with Plasmodium falciparum it was 0.9 µM; in the experiment with MCF7, 7.5 µM. Moreover, the minimal inhibitory concentration (MIC) is greater than 50 µg/mL in the experiment with Enterococcus faecium and 6.3 µg/mL (≈ 10.9 µM) in experiment [1]. Moreover, the outcome with Klebsiella pneumoniae, in the experiment with Escherichia coli, in the experiment on Pseudomonas aeruginosa, in the experiment with Acinetobacter baumannii, in the experiment with Candida albicans and with Bacillus cereus was inactive.
In turn, `O=C(N[C@H](CO)[C@H](O)c1ccc([N+](=O)[O-])cc1)C(Cl)Cl` [CHLORAMPHENICOL] showed an MIC in the experiment with Pseudomonas aeruginosa of 8 µg/mL (≈ 24.8 µM).
`CN[C@H](CC(C)C)C(=O)N[C@H]1C(=O)N[C@@H](CC(N)=O)C(=O)N[C@H]2C(=O)N[C@H]3C(=O)N[C@H](C(=O)N[C@H](C(=O)O)c4cc(O)cc(O)c4-c4cc3ccc4O)[C@H](O)c3ccc(c(Cl)c3)Oc3cc2cc(c3O[C@@H]2O[C@H](CO)[C@@H](O)[C@H](O)[C@H]2O[C@H]2C[C@](C)(N)[C@H](O)[C@H](C)O2)Oc2ccc(cc2Cl)[C@H]1O` [VANCOMYCIN] displayed an MIC in the experiment with Bacillus cereus of 2 µg/mL (≈ 1.38 µM).
For the compound `CO[C@H]1CC=C2C(=O)c3c(cc(C)c(-c4c(C)cc5c(c4O)C(=O)C4=CC[C@H](OC)[C@@H](O)[C@]4(C)O5)c3O)O[C@@]2(C)[C@@H]1O` [ASCHERXANTHONE A], the IC50 in the experiment on KB stood at 3.2 µM; with NCI-H187, 0.5 µM; in the experiment with Vero, 0.9 µM; in the experiment with Plasmodium falciparum, 1 µM; in the experiment on MCF7, 16.8 µM. Also, the MIC is greater than 50 µg/mL in the experiment with Enterococcus faecium and 6.3 µg/mL (≈ 10.9 µM) in experiment [1]. Also, the outcome with Klebsiella pneumoniae, in the experiment with Escherichia coli, in the experiment with Pseudomonas aeruginosa, in the experiment on Acinetobacter baumannii, in the experiment on Candida albicans and in the experiment with Bacillus cereus was inactive.
`O[C@@H](c1cc(C(F)(F)F)nc2c(C(F)(F)F)cccc12)[C@H]1CCCCN1` [(S,R)-MEFLOQUINE]: in the experiment with Plasmodium falciparum, the IC50 stood at 0.07 µM.
As for `CO[C@H]1[C@H](O)C=C2C(=O)c3c(cc(C)c(-c4c(C)cc5c(c4O)C(=O)C4=CC[C@H](OC)[C@@H](O)[C@]4(C)O5)c3O)O[C@@]2(C)[C@@H]1O`, the IC50 in the experiment on KB amounted to 1.3 µM; in the experiment with NCI-H187, 1 µM; with Vero, 1.2 µM; in the experiment on Plasmodium falciparum it was 0.6 µM; in the experiment with MCF7 it was 12.8 µM. Also, the minimum inhibitory concentration (MIC) was greater than 50 µg/mL in the experiment on Enterococcus faecium and 6.3 µg/mL (≈ 10.6 µM) in [1]. The outcome in the experiment on Klebsiella pneumoniae, in the experiment on Escherichia coli, with Pseudomonas aeruginosa, with Acinetobacter baumannii, in the experiment on Candida albicans and in the experiment with Bacillus cereus was inactive.
On to `CO[C@H]1CC=C2C(=O)c3c(O)cc(C)c(-c4c(C)cc(O)c5c4O[C@]4(C)C(=CC(=O)[C@H](OC)[C@H]4O)C5=O)c3O[C@@]2(C)[C@@H]1O`, for which the IC50 was determined as 4.9 µM in the experiment with KB; 1.7 µM in the experiment on NCI-H187; 4.2 µM in the experiment on Vero; 6.1 µM with Plasmodium falciparum; 25.5 µM in the experiment with MCF7. The MIC in the experiment with Enterococcus faecium was greater than 50 µg/mL; in experiment [1] it was 12.5 µg/mL (≈ 21.1 µM). Besides, the result with Klebsiella pneumoniae, in the experiment on Escherichia coli, in the experiment with Pseudomonas aeruginosa, in the experiment with Acinetobacter baumannii, with Candida albicans and in the experiment on Bacillus cereus was inactive.
For `CO[C@H]1[C@H](O)C=C2C(=O)c3c(O)cc(C)c(-c4c(C)cc(O)c5c4O[C@]4(C)C(=CC[C@H](OC)[C@H]4O)C5=O)c3O[C@@]2(C)[C@@H]1O`, the IC50 in the experiment on KB is 63.5 µM; in the experiment with NCI-H187 it was 1 µM; in the experiment with Vero, 2.2 µM; in the experiment with Plasmodium falciparum, 1.7 µM; in the experiment with MCF7 it was 63.2 µM. Further, the MIC is greater than 50 µg/mL in the experiment with Enterococcus faecium and 25 µg/mL (≈ 42 µM) in [1]. The outcome in the experiment with Klebsiella pneumoniae, in the experiment with Escherichia coli, in the experiment with Pseudomonas aeruginosa, in the experiment on Acinetobacter baumannii, in the experiment on Candida albicans and in the experiment on Bacillus cereus was inactive.
Take `CC[C@@H](CO)NCCN[C@@H](CC)CO` [ETHAMBUTOL]: in experiment [1], the MIC amounted to 0.9 µg/mL (≈ 4.4 µM).
Turning to `CC1COc2c(N3CCN(C)CC3)c(F)cc3c(=O)c(C(=O)O)cn1c23` (configuration not stated) [OFLOXACIN], the MIC in experiment [1] is 0.4 µg/mL (≈ 1.11 µM).
For `CC[C@H]1OC(=O)[C@H](C)[C@@H](O[C@H]2C[C@@](C)(OC)[C@@H](O)[C@H](C)O2)[C@H](C)[C@@H](O[C@@H]2O[C@H](C)C[C@H](N(C)C)[C@H]2O)[C@](C)(O)C[C@@H](C)C(=O)[C@H](C)[C@@H](O)[C@]1(C)O` [ERYTHROMYCIN], the minimum inhibitory concentration (MIC) in the experiment with Klebsiella pneumoniae was found to be 200 µg/mL (≈ 273 µM); in the experiment with Escherichia coli, 25 µg/mL (≈ 34.1 µM); in the experiment on Pseudomonas aeruginosa, 32 µg/mL (≈ 43.6 µM); in the experiment with Acinetobacter baumannii it was 12.5 µg/mL (≈ 17 µM).
For `CO[C@H]1CC=C2C(=O)c3c(cc(C)c(-c4c(C)cc5c(c4O)C(=O)C4=CC[C@H](OC)[C@H](OC(C)=O)[C@]4(C)O5)c3O)O[C@@]2(C)[C@@H]1O`, the IC50 in the experiment on KB amounted to 1.5 µM; in the experiment on NCI-H187, 1 µM; in the experiment with Vero, 0.9 µM; in the experiment with Plasmodium falciparum it was 1.4 µM; in the experiment on MCF7, 7.2 µM. The MIC with Enterococcus faecium was 12.5 µg/mL (≈ 20.1 µM); in experiment [1], 6.3 µg/mL (≈ 10.2 µM). Moreover, the outcome in the experiment with Klebsiella pneumoniae, with Escherichia coli, with Pseudomonas aeruginosa, with Acinetobacter baumannii, in the experiment with Candida albicans and with Bacillus cereus was inactive.
In the experiment on Candida albicans, `C[C@@H]1[C@H](O)[C@@H](C)/C=C/C=C/C=C/C=C/C=C/C=C/C=C/[C@H](O[C@@H]2O[C@H](C)[C@@H](O)[C@H](N)[C@@H]2O)C[C@@H]2O[C@](O)(C[C@@H](O)C[C@@H](O)[C@H](O)CC[C@@H](O)C[C@@H](O)CC(=O)O[C@H]1C)C[C@H](O)[C@H]2C(=O)O` [AMPHOTERICIN B] gave an MIC of 0.1 µg/mL (≈ 0.108 µM).
In the case of `CO[C@H]1CC=C2C(=O)c3c(cc(C)c(-c4c(C)cc5c(c4O)C(=O)C4=CC[C@H](OC)[C@H](O)[C@]4(C)O5)c3O)O[C@@]2(C)[C@@H]1O`, the IC50 was 3.4 µM in the experiment with KB; 1.2 µM with NCI-H187; 2.4 µM in the experiment on Vero; 1 µM with Plasmodium falciparum; greater than 86.4 µM with MCF7. For the same compound, the MIC is 12.5 µg/mL (≈ 21.6 µM) against Enterococcus faecium and 25 µg/mL (≈ 43.2 µM) in experiment [1]. In addition, the outcome with Klebsiella pneumoniae, with Escherichia coli, in the experiment with Pseudomonas aeruginosa, in the experiment with Acinetobacter baumannii, in the experiment on Candida albicans and with Bacillus cereus was inactive.
For the compound `Cc1c2ccncc2c(C)c2c1[nH]c1ccccc12` [ELLIPTECINE], the values for the IC50 in the experiment with KB, with NCI-H187 and with Vero were 6.1 µM, 9.1 µM and 7.9 µM, respectively.
As to `CO[C@H]1/C=C/O[C@@]2(C)Oc3c(C)c(O)c4c(O)c(c(/C=N/N5CCN(C)CC5)c(O)c4c3C2=O)NC(=O)/C(C)=C\C=C\[C@H](C)[C@H](O)[C@@H](C)[C@@H](O)[C@@H](C)[C@H](OC(C)=O)[C@@H]1C` [RIFAMPIN], the MIC was determined as 3.1 µg/mL (≈ 3.77 µM) in the experiment with Enterococcus faecium, 25 µg/mL (≈ 30.4 µM) in the experiment on Klebsiella pneumoniae, 6.3 µg/mL (≈ 7.66 µM) against Escherichia coli and 3.1 µg/mL (≈ 3.77 µM) against Acinetobacter baumannii.
With `COC1=C[C@]2(C)Oc3c(c(O)cc(C)c3-c3c(C)cc(O)c4c3O[C@]3(C)C(=CC[C@H](OC)[C@H]3O)C4=O)C(=O)[C@@H]2CC1=O`, the IC50 is 9.7 µM in the experiment on KB; 3.5 µM in the experiment with NCI-H187; 6.1 µM with Vero; 4.8 µM with Plasmodium falciparum; 17.6 µM in the experiment with MCF7. For the same compound, the MIC in the experiment with Enterococcus faecium was greater than 50 µg/mL; in experiment [1] it was 12.5 µg/mL (≈ 21.7 µM). The result in the experiment on Klebsiella pneumoniae, with Escherichia coli, in the experiment with Pseudomonas aeruginosa, in the experiment on Acinetobacter baumannii, with Candida albicans and in the experiment with Bacillus cereus was inactive.
For the compound `CN[C@@H]1[C@H](O[C@H]2[C@H](O[C@H]3[C@H](O)[C@@H](O)[C@H](N=C(N)N)[C@@H](O)[C@@H]3N=C(N)N)O[C@@H](C)[C@]2(O)C=O)O[C@@H](CO)[C@H](O)[C@H]1O` [STREPTOMYCIN], the MIC in experiment [1] came to 0.3 µg/mL (≈ 0.516 µM).
`CO[C@H]1CC=C2C(=O)c3c(O)cc(C)c(-c4c(C)cc(O)c5c4O[C@]4(C)C(=CC[C@H](OC)[C@@H]4O)C5=O)c3O[C@@]2(C)[C@@H]1O`: the IC50 in the experiment on KB was 4.7 µM; with NCI-H187, 2.8 µM; in the experiment on Vero it was 4.2 µM; in the experiment on Plasmodium falciparum, 2.6 µM; in the experiment with MCF7 it was 27.9 µM. The results for the MIC (against Enterococcus faecium; in experiment [1]) were greater than 50 µg/mL and 6.3 µg/mL (≈ 10.9 µM), respectively. For the same compound, the result in the experiment with Klebsiella pneumoniae, in the experiment with Escherichia coli, with Pseudomonas aeruginosa, with Acinetobacter baumannii, with Candida albicans and in the experiment on Bacillus cereus was inactive.
Regarding `NNC(=O)c1ccncc1` [ISONIAZID], the MIC in experiment [1] is 0.1 µg/mL (≈ 0.729 µM).
Turning to `CC/C(=C(\c1ccccc1)c1ccc(OCCN(C)C)cc1)c1ccccc1` [TAMOXIFEN], the IC50 in the experiment with MCF7 came to 19.2 µM.

For orientation: IC50 means the concentration that inhibits the measured activity by half. In general, MIC refers to the smallest concentration in the dilution series that meets the test's criterion for growth inhibition.
